Tests used:
gastric cancer cell line = assay: Cell invasion after miRNA or antagomir transfection, gastric cancer cells; format: cell-based, human; conditions: middle panel of FIG. 6D
Method: […] Plate inserts (BD Biosciences) of […] pore size were placed in a 24-well plate, and each 100 μl of matrigel (BD Biosciences) was seeded on each at a concentration of 200 μg/ml and incubated in a CO2 incubator for 30 minutes. […] 400 μl of growth media (RPMI1640+10% FBS) were seeded on the bottom plate and cultured in a CO2 incubator for 24 hours. After 24 hours, the insert plate was washed with PBS, and the remaining cells were wiped with a cotton swab and fixed in 10% formalin for 20 minutes. After washing with purified water, the cells were stained with 0.01% crystal violet solution for 20 minutes and washed with warm water, and then the number of migrated cells was counted. In the case of the migration assay, the same procedure as above was carried out without coating the insert plate. The number of cells migrated through the insert plate in the control and the gastric cancer and lung cancer cell lines transfected with MET or IGSF1 siRNA was counted and verified.

IGSF1 [1] = assay: IGSF1 expression after miR-34a/miR-34c or antagomir transfection, gastric cancer cells; format: cell-based, human
From the text: (§1) Moreover, as shown in the lower panel of FIG. 6B, as a result of analyzing the expression of MET and IGSF1 after transfecting miR-34a or miR-34c into human gastric cancer cell lines MKN45 and SNU638, it was observed that the expression of IGSF1 as a marker for the induction of HGF-independent MET phosphorylation and the expression of c-MET were inhibited by miR-34a or miR-34c.

MET [2] = assay: MET expression after miR-34a/miR-34c or antagomir transfection, gastric cancer cells; format: cell-based, human; conditions: for expression of c-MET: MKN45 and SNU638, lower panel of FIG. 6B; for expression of MET: cell line SNU638, real-time PCR, upper panel of FIG. 6B
From the text: as §1

[3] = system: relevant signaling pathway; assay: Expression of the relevant signaling pathway after miRNA transfection; format: cell-based; conditions: human gastric cancer cell line; lower panel of FIG. 6C
[4] = system: human gastric cancer cell line SNU638; assay: Cell growth after miRNA transfection, trypan blue exclusion; format: cell-based; conditions: 300 nM, compared with the control group
Method: Human miRNA-34a (SEQ ID NO: 1; […]) or miRNA-34c (SEQ ID NO: 2; […]) was purchased from Thermo Fisher Scientific. 4×10^5 HGF-independent human gastric cancer SNU638 cells were seeded and transfected with 300 nM of miRNA-34a or miRNA-34c, and then the number of cells was counted using trypan blue exclusion method for 0, 1, 2 and 3 days.
4×10^5 HGF-independent human gastric cancer SNU638 cells or 3×10^5 MKN45 cells were transfected with 300 nM of miRNA-34a (SEQ ID NO: 1) or miRNA-34c (SEQ ID NO: 2), and then the number of cells was counted using trypan blue exclusion method for 0, 1, 2 and 3 days.

IGSF1 [5] = assay: IGSF1 expression after miRNA transfection, lung cancer cells; format: cell-based, human; conditions: lung cancer cell lines HCC827 and H1944
[6] = system: gastric cancer cell lines SNU638 and MKN45; assay: Cell migration after miRNA or antagomir transfection, gastric cancer cells; format: cell-based, human; conditions: for migration of cells: SNU638, lower panel of FIG. 6D; for cell migration: SNU638 and MKN45, upper panel of FIG. 6D
MET [7] = assay: Luciferase 3'UTR reporter assay in human 293 cell line, MET; format: cell-based; conditions: wild-type vs mutated 3'UTR luciferase plasmids
pMET = pMET expression after miRNA/antagomir transfection, lung cancer cells; format: cell-based, human; conditions: lung cancer cell lines HCC827 and H1944
IGSF1 [8] = assay: Luciferase 3'UTR reporter assay in human 293 cell line, IGSF1; format: cell-based; conditions: wild-type vs mutated 3'UTR luciferase plasmids
MMP9 = MMP9 expression after miRNA transfection; format: cell-based, human; conditions: SNU638; lower panel of FIG. 6D
From the text: Furthermore, as shown in the lower panel of FIG. 6D, the transfection of gastric cancer cell line SNU638 with mir-34a or mir-34c inhibited the migration of cells and decreased the expression of MMP9.

[9] = system: human gastric cancer cell lines SNU638 and MKN45; assay: Cell growth (cell counting) after shRNA, gastric cancer cells; format: cell-based; conditions: number of cells counted for 3 days, shRNA method
From the text: The present inventors inhibited the expression of IGSF1 or MET by the shRNA method in human gastric cancer cell lines SNU638 and MKN45 and then determined the inhibition of cell growth.

phosphorylation of MET = assay: Western blot of MET phosphorylation after inhibiting IGSF1 by siRNA/shRNA; format: cell-based, human; conditions: AGS, MKN45, SNU638 and HCC827, concentration-dependent manner, FIG. 2E
Method: (§2) To perform Western blot analysis, proteins isolated from the respective cells were separated by SDS-PAGE and transferred to membranes (PolyScreen membranes; New England Nuclear, Boston, Mass., USA). The proteins were incubated with various antibodies (anti-phospho MET, E-cadherin (Cell signaling Technology, Beverly, Mass., USA), anti-MET, anti-r-tubulin (Santa Cruz Biotechnology, Santa Cruz, Calif., USA), anti-IGSF1 (Abnova, Jhouzih, Taipei, Taiwan)) at 4° C. for 12 hours and then washed with 1× TBS-T buffer three times for 10 minutes. The proteins were incubated with appropriate anti-rabbit-HRP or anti-mouse-HRP secondary antibody at room temperature for 2 hours and washed with 1× TBS-T buffer three times for 10 minutes, and then the expression of the proteins was detected using ECL solution (GE Healthcare Bio-Sciences Corp.). […]
(§3) To analyze the changes in MET phosphorylation by inhibition of the expression of IGSF1 as a marker for the induction of HGF-independent MET phosphorylation in human gastric cancer cell line (AGS, MKN45, SNU638) and lung cancer cell line (HCC827), the present inventors inhibited the expression of IGSF1 or MET by the siRNA method and then determined the changes in phosphorylation of the MET protein by western blot analysis.

[10] = system: human gastric cancer cell lines SNU638 and MKN45; assay: Colony forming assay after inhibition of IGSF1 or MET; format: cell-based
Method: Moreover, the expression of IGSF1 or MET in human gastric cancer cell lines SNU638 and MKN45 was inhibited, and then the degree of the inhibition of cell growth was determined by colony forming assay.

[11] = system: human lung cancer cell lines HCC827 and HCC194; assay: Cell growth (cell counting) after shRNA, lung cancer cells; format: cell-based; conditions: number of cells at 24 hours and 48 hours, shRNA method
From the text: The present inventors inhibited the expression of IGSF1 or the expression of MET by the shRNA method in human lung cancer cell lines HCC827 and HCC194 and then determined the inhibition of cell growth.

MET [12] = assay: Real-time PCR of MET expression after shRNA inhibition of IGSF1; format: cell-based, human; conditions: RNA level, SNU638 and MKN45, inhibition of IGSF1 by shRNA method
From the text: (§4) The present inventors inhibited the expression of IGSF1 or MET by the shRNA method in human gastric cancer cell lines SNU638 and MKN45 and then determined the changes in expression of each gene by real-time PCR.

[13] = system: human gastric cancer cell lines SNU638 and MKN45; assay: Invasion chamber assay after siRNA, gastric cancer cells; format: cell-based; conditions: siRNA method
Method: (§5) HGF-independent human gastric cancer cell lines MKN45 and SNU638 and lung cancer cell line HCC827 were transfected with IGSF1 siRNA or MET siRNA for 48 hours. Plate inserts (BD Biosciences) of […] pore size were placed in a 24-well plate, and each 100 μl of matrigel (BD Biosciences) was seeded on each at a concentration of 200 μg/ml and incubated in a CO2 incubator for 30 minutes. 2.5×10^4 cells transfected with MET or IGSF1 siRNA were placed in the insert plate in a total volume of 100 μl in serum-free media. 400 μl of growth media (RPMI1640+10% FBS) were seeded on the bottom plate and cultured in a CO2 incubator for 24 hours. After 24 hours, the insert plate was washed with PBS, and the remaining cells were wiped with a cotton swab and fixed in 10% formalin for 20 minutes. After washing with purified water, the cells were stained with 0.01% crystal violet solution for 20 minutes and washed with warm water, and then the number of migrated cells was counted. […] The number of cells migrated through the insert plate in the control and the gastric cancer and lung cancer cell lines transfected with MET or IGSF1 siRNA was counted and verified.
(§6) The present inventors inhibited the expression of IGSF1 by the siRNA method in human gastric cancer cell lines SNU638 and MKN45 and then analyzed the degree of the inhibition of invasion and migration by invasion chamber assay and wound healing assay.

[14] = system: human gastric cancer cell lines SNU638 and MKN45; assay: Wound healing / migration assay after siRNA, gastric cancer cells; format: cell-based; conditions: siRNA method
Method: as §5, §6

IGSF1 [15] = assay: Real-time PCR of IGSF1 expression after shRNA inhibition of MET; format: cell-based, human; conditions: RNA level, SNU638 and MKN45, inhibition of MET by shRNA method
From the text: as §4

IGSF1 [16] = assay: Western blot of IGSF1 expression after MET shRNA; format: cell-based, human; conditions: MET shRNA concentration-dependent manner, FIG. 2E
Method: as §2, §3

[17] = system: gastric cancer cell lines SNU638 and MKN45; assay: Apoptosis by MET inhibitor, trypan blue exclusion, gastric cancer cells; format: cell-based, human
cleaved caspase 3 = assay: Expression of cleaved caspase 3 after MET inhibitor treatment; format: cell-based, human; conditions: treatment at each concentration; SNU638 and MKN45
[18] = MKN45 and SNU638, lower panel of FIG. 6B
[19] = cell line SNU638, real-time PCR, upper panel of FIG. 6B

Row | Compound | inhibition of the invasion of cells (gastric cancer cell line) | expression of IGSF1 (IGSF1 [1]; [18]) | expression of IGSF1 (IGSF1 [1]; [19]) | expression of c-MET (MET [2]) | expression of MET (MET [2]) | expression of the relevant signaling pathway [3] | growth of cancer cells [4] | expression of IGSF1 (IGSF1 [5]) | migration of cells [6] | cell migration [6] | luciferase activity of MET (MET [7]) | expression of pMET (pMET) | luciferase activity of IGSF1 (IGSF1 [8]) | expression of MMP9 (MMP9) | cell growth [9] | number of colonies [10] | cell growth [11] | other results
1 | miR-34a: Human miRNA-34a, SEQ ID NO: 1, UGGCAGUGUCUUAGCUGGUUGU, purchased from Thermo Fisher Scientific (listed as RNA, chemistry not given here) | about 50% | inhibited | decreased | inhibited | decreased | decreased | significantly inhibited | decreased | inhibited | inhibited | inhibited only in the wild type | decreased | inhibited only in the wild type | decreased | – | – | – | –
2 | IGSF1 shRNA: shRNA against IGSF1, SEQ ID NO: 6, 5′-CAAAGAUGGAAGUGAAAUA UCUCUAUUUCACUUCCAUCUUUGUU-3′ (CAAAGAUGGAAGUGAAAUAUCUCUAUUUCACUUCCAUCUUUGUU; siRNA; shRNA hairpin, further chemistry not given here) | – | – | – | – | – | – | – | – | – | – | – | – | – | – | inhibited | decreased | inhibited | phosphorylation of MET (phosphorylation of MET): decreased; expression of MET (MET [12]): decreased
3 | MET siRNA: siRNA against MET, SEQ ID NO: 5, 5′-AAAGATAAACCTCTCATAATG-3′ (AAAGAUAAACCUCUCAUAAUG; listed as RNA, chemistry not given here) | – | – | – | – | – | – | – | – | – | – | – | – | – | – | – | – | – | invasion [13]: inhibited; migration [14]: inhibited
4 | MET shRNA: shRNA against MET, SEQ ID NO: 7, 5′-GCCAGCCUGAAUGAUGACAUCUCUGUCAUCAUUCAGGCUGGCUU-3′ (siRNA; shRNA hairpin, further chemistry not given here) | – | – | – | – | – | – | – | – | – | – | – | – | – | – | inhibited | decreased | inhibited | expression of IGSF1 (IGSF1 [15]): decreased; expression of IGSF1 (IGSF1 [16]): decreased
5 | Cc1[nH]c(/C=C2\C(=O)Nc3ccc(S(=O)(=O)Cc4c(Cl)cccc4Cl)cc32)c(C)c1C(=O)N1CCC[C@@H]1CN1CCCC1 [PHA665752] | – | – | – | – | – | – | – | – | – | – | – | – | – | – | – | – | – | induction of apoptosis ([17]; trypan blue exclusion, treatment at each concentration): induction of apoptosis; response to the MET inhibitor ([17]; with inhibition of the expression of IGSF1): increased; expression of cleaved caspase 3 (cleaved caspase 3): increased
6 | miR-34c: Human miRNA-34c, SEQ ID NO: 2, AGGCAGUGUAGUUAGCUGAUUGC, purchased from Thermo Fisher Scientific (listed as RNA, chemistry not given here) | about 50% | inhibited | decreased | inhibited | decreased | decreased | significantly inhibited | decreased | inhibited | inhibited | inhibited only in the wild type | decreased | inhibited only in the wild type | decreased | – | – | – | –

Source: patent US11186873B2, “Combination method for treating cancer by targeting immunoglobulin superfamily member 1 (IGSF1) and mesenchymal-epithelial transition factor (MET)” (WELLMARKER BIO CO., LTD., priority 2014, dated 2021)
